This is an account of results in patent US20250283035A1, “MORPHOGENIC COMPOUND-RELEASING MICROSPHERES AND USE IN BIOINK” (UVic Industry Partnerships Inc., priority 2018, published 2025).

The conditions of data set [1]: drug in microspheres, literature values, cited from earlier work.
The conditions of data set [2]: cited from earlier work.
Data set [3] is described as follows: 46-day purmorphamine release study from PCL microspheres in PBS. Type of data set: physicochemical. The method, then:
A 46-day release study was performed to determine the release kinetics of purmorphamine. Each sample contained 10 mg of microspheres and 1 ml of PBS placed on 1.5 ml micro tubes (Axygen®). Samples for each day of collection (n=3) were placed on a VWR® mini shaker at 330 rpm at 37° C. and were collected every 4 days. After collection, samples were washed with de-ionized water and freeze-dried for further analysis. The drug was extracted from the microspheres and then quantified with high-performance liquid chromatography (HPLC) to estimate the puro concentration in the microspheres. Next, 10 mg of microspheres was placed in 1.5 ml microtubes in triplicate. […] The samples were then placed on the vortex mixer (Eppendorf® MixMate®) at 2500 rpm for 5 minutes. […] The samples were then placed at −80° C. for 5 minutes followed by centrifugation (Eppendorf 5424) at 1500 rpm for five minutes. The samples were filtered using 0.2 μm PTFE syringe filters before adding the supernatant to amber vials. HPLC was performed using an Agilent 1200 equipped with quaternary pump and diode-array detector (DAD) to quantify the amount of puro present in samples. A standard of puro with eleven dilutions of a stock solution diluted in ACN was used to determine the concentrations of the samples. The column used was an Eclipse Plus C18 (Agilent) with 5 μm particle size, 4.6 mm internal diameter (ID), and was 150-mm long with similar phase and ID guard column. Samples were analyzed at 300 nm after mass spectroscopy was used to generate a spectrum for puro. Mass spectroscopy information was acquired using an Ultimate 3000 HPLC system connected to an Orbitrap (Thermo Fisher Scientific). The system was used in direct infusion mode with no separation. Solvents used for this analysis were HPLC-grade ACN mixed with […] dispensed from a Milli-Q integral purification system (Millipore, ON, Canada). Both contained 0.1% V/V trifluoroacetic acid (TFA) (Fisher Scientific, Hampton, NH). […] ChemStation software was used for data analysis with auto-integration adjusted manually when needed.

Data set [4] deals with hiPS aggregates. Nature of the data set: Neurite morphology analysis of hiPS aggregates, IncuCyte (Example 2). Format: cell-based, human. The conditions noted are these: day 12. As to the method:
ReLeSR™ was used to select and remove undifferentiated hiPSs from the wells. Uniform hiPS aggregates were formed by adding a single cell suspension in STEMdiff™ Neural Induction Medium of 1×106 hiPSs to wells in AggreWell™ 800 plates and centrifuged for 5 min at 100×g to deposit the cells at the bottom of each microwell. Before incorporation with the cells, the microspheres were sterilized by low power air-plasma treatment (Harrick PDC-32G) for 30 seconds as described previously. […]
Immunostained cell aggregates were imaged with an IncuCyte® ZOOM automatic live-cell imaging system (Essen BioScience, Ann Arbor, MI) at 10× magnification. Quantification of the morphological metrics of neurite length and branch points was performed using IncuCyte® ZOOM Software (2016A). Using the NeuroTrack™ software module, day 12 and day 20 green channel fluorescence (anti-beta-tubulin III positive) images were analyzed by masking the total neurite coverage and calculating the average length and branch points with the same processing definition. The cell aggregate area was analyzed for day 12 images using a NeuroTrack™ software processing definition, whereas a Basic Analyzer processing definition (used for confluence masking) was used to analyze the day 20 images. […]

The conditions of data set [5]: quoted in Example 1 from ref [42]; cited from earlier work.
Data set [6] is described as follows: Degradation of fibrin scaffolds containing drug (Example 3).
Data set [7] is described as follows: In vitro guggulsterone release study from PCL microspheres in PBS. Type of data set: physicochemical. The method, then:
In vitro release studies were performed in triplicate. Ten milligrams of microspheres was suspended in 1 mL of PBS in a microtube. The tubes were then loaded onto a Sarstedt Sarmix mr-1 tube rotator and incubated at 37° C. The PBS supernatant for each tube was replaced every 2 days while tubes were removed and collected from the rotator at the following predetermined time points: day 2, 4, 8, 12, 16, 20, 24, 28, 36, and 44. For the collected tubes, the PBS supernatant was removed, and the microspheres were washed with deionized water, lyophilized, and weighed. The remaining GS concentration inside the microspheres was determined as previously described by dissolving microspheres with DCM, extracting the drug/precipitating PCL with 100% ethanol, and reading the absorbance at 255 nm using a Tecan Infinite® M200Pro plate reader (Gomez, et al., 2015). The amount of GS released was calculated by subtracting the GS remaining in the microspheres from the theoretical GS present in each amount of microspheres at day 0. Percentages of the drug that were assumed to be released for each sample day were calculated by comparing drug amounts leftover and initial amounts of the drug inside the microspheres to create a cumulative release graph.

The test system of data set [8] is hiPS aggregates. Nature of the data set: Flow cytometry of βIII-tubulin (TUJ1), Olig2, GFAP in hiPS aggregates (Example 2). Format: cell-based, human. Also on record: unit of the concentration uncertain. As to the method:
ReLeSR™ was used to select and remove undifferentiated hiPSs from the wells. Uniform hiPS aggregates were formed by adding a single cell suspension in STEMdiff™ Neural Induction Medium of 1×106 hiPSs to wells in AggreWell™ 800 plates and centrifuged for 5 min at 100×g to deposit the cells at the bottom of each microwell. Before incorporation with the cells, the microspheres were sterilized by low power air-plasma treatment (Harrick PDC-32G) for 30 seconds as described previously. When forming microsphere-incorporated hiPS aggregates, 0.5 mg of microspheres suspended in STEMdiff™ Neural Induction Medium was added to each AggreWell™ 800 well for a total of 2 mL of media in each well and centrifuged for 5 min at 100×g (FIGS. 11A-11B). The aggregates in the AggreWell™ 800 plates were maintained in 2 mL of STEMdiff™ Neural Induction Medium with daily media changes for 5 days. On day 5, the aggregates were harvested for immunocytochemistry or transferred to PLO/laminin-coated 24-well plates at a single aggregate per well for the remaining duration of the cell study (until day 12 or day 20). […] Negative control treatments contained aggregates without microspheres and media without soluble drug added. […]
Cell marker expression was quantified with flow cytometry on day 20 for β-tubulin III, Olig-2, and GFAP. […]
For orientation: Flow cytometry measures light scatter and fluorescence of single cells or particles in a stream.

For data set [9] the following is noted: ref [50]; cited from earlier work.
The conditions of data set [10]: cited from earlier work. This is another data set of the same source.
Data set [11] is described as follows: Guggulsterone encapsulation efficiency (extraction, HPLC-MS). Format: physicochemical. The conditions noted are these: PCL microspheres, 0.6 μg/mg GS/PCL; of total GS added. The method, then:
The amount of GS encapsulated per unit weight of microspheres was determined by extracting the drug from the fabricated microspheres. A measured amount of lyophilized microspheres was placed in a 1.5 mL propylene microtube, and 200 μL of ACN was added to each sample. The samples were vortexed at 3000 rpm for 30 seconds, vortexed for 5 minutes at 350 rpm (Eppendorf® MixMate®), and mixed with a micropipette for 10 seconds. These mixing steps were repeated twice to dissolve the PCL. Next, 1000 μL of additional ACN was added to the samples and mixed by micropipette for 10 seconds and then vortexed at 3000 rpm for 30 seconds. The solution was then centrifuged at 22° C. and 13000 rpm for 5 min using an Eppendorf 5424 Microcentrifuge. Thereafter, 1000 μL of the supernatant was transferred to a microtube and diluted as necessary for high performance liquid chromatography-mass spectrometry (HPLC-MS). The concentration of the drug in the sample was determined using HPLC-MS (Ultimate 3000 MSQ, Thermo Scientific with Chromeleon™ software) and run against a GS standard composed of five dilutions of a stock solution composed of GS dissolved in ACN. […]

[12] abbreviates: if release rate consistent beyond 44 days.

Several values for one entry are separate records, joined by “and”; a condition that tells them apart may be missing. Equal entries are not always repeated. Where two headings read alike, the source gives them in different places.

Take `O=C1CN=C(c2ccccc2Cl)c2cc([N+](=O)[O-])ccc2N1` [Clonazepam]: the “encapsulation efficiency, previously reported” value in data set [1] is reported as 72.6-95.1%.
Consider `CC1=C(/C=C/C(C)=C/C=C/C(C)=C/C(=O)O)C(C)(C)CCC1` [RA, retinoic acid], for which the “cumulative RA release from PCL microspheres” value in data set [2] (day 28, RA concentration 7.5 times greater) is about 53%; in data set [2] (day 28, lower RA concentration), 28%. Also, the entries for the “encapsulation efficiency, previously reported” value in [1] and in data set [1] (listed as retinoic acid) were 60.0% and about 60%, respectively.
`CC(=O)OCC(=O)[C@@]1(O)CC[C@H]2[C@@H]3CCC4=CC(=O)CC[C@]4(C)[C@H]3[C@@H](O)C[C@@]21C` [hydrocortisone 21-acetate]: in [1], the “encapsulation efficiency, previously reported” value is given as about 55%.
Regarding `C[C@]12CCC(=O)C=C1CC[C@@H]1[C@@H]2[C@@H](O)C[C@@]2(C)[C@H]1CC[C@]2(O)C(=O)CO` [hydrocortisone], in data set [1], the “encapsulation efficiency, previously reported” value is reported as about 9%.
In the case of `c1ccc2c(Oc3nc(Nc4ccc(N5CCOCC5)cc4)c4ncn(C5CCCCC5)c4n3)cccc2c1` [puro, purmorphamine], the cumulative puro release in data set [3] (day 28) was 68%; in [3] (day 44) it was about 87%; in data set [3] (day 46, of theoretically encapsulated drug), 91%. Also, in data set [3] (from 0.34 mg of puro-loaded microspheres added to cell aggregates), the “puro released on average per day” value is about 0.0748 µg. For the same molecule, in data set [3] (from 10 mg of microspheres), the “puro released every day” value came to 2.2 µg.
Take guggulsterone [GS]: the “neurite length per cell cluster area” value in [4] is “greater neurite length compared to the negative control”. Besides, the “GS encapsulation efficiency, previously reported” value in data set [5] is given as 42.4%. Also, the “degradation of fibrin scaffolds containing the drug” value in data set [6] is “degraded much faster than samples containing RA”. In addition, the “concentration of GS released” value in data set [7] (0.5 mg of microspheres per aggregate-forming well) was about 0.93 ng/mL. The “cumulative GS release” value in data set [7] (day 28) was about 45%; in [7] (day 44 (final day), of drug theoretically encapsulated), ~60% and ~62%. Moreover, in data set [7] (from 10 mg of microspheres, slope of graph), the “average release of GS per day” value was determined as 37 ng. The “additional duration of GS delivery beyond 44 days” value in [7] (setting [12]) was 27 days. Moreover, the “total duration of drug release” value in data set [7] (setting [12]) is 71 days. Moreover, the “total amount of guggulsterone encapsulated” value in data set [7] (in 10 mg of microspheres) is on record as about 2550 ng. Besides, the “theoretical total amount of drug initially in each sample” value in [7] (in 10 mg of microspheres, day 0) is about 2.5 µg. The “TUJ1 expression (flow cytometry)” value is about 4% in data set [8] (day 20, soluble GS at 0.25 µM) and about 7% in data set [8] (day 20, soluble GS at 2.5 µM). Further, the susceptibility to degradation result in data set [9] is reported as “susceptible to degradation, including photodegradation”. The “cumulative GS release, previously reported” value was 45% in data set [10] (day 28, quoted in Example 1 from refs [40, 42]) and 55% in data set [10] (day 44, quoted in Example 1 from refs [40, 42]). Besides, in data set [11], the GS encapsulation efficiency was 42.4±3.5% and ~42%.
